Read-outs that look alike come from different tables or passages of the source.
How the values were obtained:
[1] = mouse, in vivo, ip
Source text: Tumor growth was monitored daily. […] Significance was set at p≤0.05.

[2] = Pharmacokinetics in male Sprague Dawley rats (intravenous and oral); type: in vivo, rat; conditions: for bioavailability: male, Sprague Dawley, po, 10 mg/kg; for AUC: read-out: AUC 0-infinity_observed
Protocol: Table 6 provides the pharmacokinetic parameters of Example (I) in male Sprague Dawley rats after a single bolus intravenous dose of 2 mg/kg. Table 7 provides the pharmacokinetic parameters of Example I in male Sprague Dawley rats after a single bolus oral dose of 10 mg/kg. In order to measure bioavailability in vivo, a compound may be administered to a test animal (e.g. mouse or rat) both intraperitoneally (i.p.) or intravenously (i.v.) and orally (p.o.) and blood samples are taken at regular intervals to examine how the plasma concentration of the drug varies over time. The time course of plasma concentration over time can be used to calculate the absolute bioavailability of the compound as a percentage using standard models. An example of a typical protocol is described below. […] The time-course of plasma or whole blood concentrations can then be used to derive key parameters such as the area under the plasma or blood concentration-time curve (AUC-which is directly proportional to the total amount of unchanged drug that reaches the systemic circulation), the maximum (peak) plasma or blood drug concentration, the time at which maximum plasma or blood drug concentration occurs (peak time), additional factors which are used in the accurate determination of bioavailability include: the compound's terminal half-life, total body clearance, steady-state volume of distribution and F %. These parameters are then analyzed by non-compartmental or compartmental methods to give a calculated percentage bioavailability, for an example of this type of method see Gallant-[…] et al, 2000 and […] et al, 1998, and references therein.

[3] = male Sprague Dawley rats, single bolus intravenous dose of 2 mg/kg
[4] = male Sprague Dawley rats, single bolus oral dose of 10 mg/kg
[5] = rat, blood, male Sprague Dawley rats, single bolus intravenous dose of 2 mg/kg
[6] = rat, blood, male Sprague Dawley rats, single bolus oral dose of 10 mg/kg

With `CO[C@H]1C[C@@H]2CC[C@@H](C)[C@@](O)(O2)C(=O)C(=O)N2CCCC[C@H]2C(=O)O[C@H]([C@H](C)C[C@H]2C[C@H]3C[C@@H]2C[C@@H]3O)CC(=O)[C@H](C)/C=C(\C)[C@@H](O)[C@@H](OC)C(=O)[C@H](C)C[C@H](C)/C=C/C=C/C=C/1C` [Formula II, C37-[(1R,2S,4R,5S)-5-hyhroxybicyclo[2.2.1]heptane] rapamycin] as the compound, how does the “Body Wt. % Δ from Baseline, Mean” value [1] read?
The value was 14.68%.

And the “Body Wt. % Δ from Baseline, Median” value [1]?
The value was 14.64%.

And the “Change in Body Weight Day 1-30, Mean” value [1]?
Its value is 3.13.

What about the “Change in Body Weight Day 1-30, Median” value [1] of the same compound?
Its value is 3.08.

And the “Day 30 Body Weight, Mean” value [1]?
The value was 24.37 g.

What about the “Day 30 Body Weight, Median” value [1] of the same compound?
Its value is 24.12 g.

What about the “AUMC 0-inf_observed” value [2, 3] of the same compound?
The value was 2358 ng/ml*h^2.

What about the Cl_obs [2, 3] of the same compound?
Its Cl_obs is 0.0026 (mg/kg)/(ng/ml)/h.

What about the Lambda_z [2, 3] of the same compound?
The Lambda_z was 0.270 h⁻¹.

What about the Vss_obs [2, 3] of the same compound?
Its Vss_obs is 0.00797 (mg/kg)/(ng/ml).

And the Vz_obs [2, 3]?
The Vz_obs was 0.00963 (mg/kg)/(ng/ml).

What about the “AUMC 0-inf_obs” value [2, 4] of the same compound?
Its value is 13410 ng/ml*h^2.

What about the Cl/F_obs [2, 4] of the same compound?
The Cl/F_obs was 0.0055 (mg/kg)/(ng/ml)/h.

And the Lambda_z [2, 4]?
Its Lambda_z is 0.127 h⁻¹.

What about the Tlag [2, 4] of the same compound?
Its Tlag is 0 h.

And the Vz/F_obs [2, 4]?
The Vz/F_obs was 0.0433 (mg/kg)/(ng/ml).

And the bioavailability ([2]; rat, blood, male Sprague Dawley rats, single bolus oral dose of 10 mg/kg, read-out: % F)?
The bioavailability was 47%.

What about the bioavailability ([2]; rat, blood, read-out: oral bioavailability) of the same compound?
The bioavailability was ~47%.

And the AUC(0-t) [2, 5]?
The AUC(0-t) was 694 ng·h/mL.

And the C0 [2, 5]?
Its C0 is 1560 ng/mL.

And the half-life [2, 5]?
Its half-life is 2.57 h.

What about the AUC [2, 5] of the same compound?
The AUC was 769 ng·h/mL.

What about the Cmax ([2]; rat, blood, male Sprague Dawley rats, single bolus intravenous dose of 2 mg/kg, read-out: Cmax (maximum blood concentration)) of the same compound?
The Cmax was 912 ng/mL.

And the MRT ([2]; rat, blood, male Sprague Dawley rats, single bolus intravenous dose of 2 mg/kg, read-out: MRT 0-infinity_observed)?
Its MRT is 3.06 h.

What about the Tmax ([2]; rat, blood, male Sprague Dawley rats, single bolus intravenous dose of 2 mg/kg, read-out: Tmax (time maximum blood conc.)) of the same compound?
The Tmax was 0.0333 h.

What about the AUC(0-t) [2, 6] of the same compound?
The AUC(0-t) was 1720 ng·h/mL.

What about the half-life [2, 6] of the same compound?
Its half-life is 5.46 h.

What about the AUC [2, 6] of the same compound?
The AUC was 1820 ng·h/mL.

What about the Cmax ([2]; rat, blood, male Sprague Dawley rats, single bolus oral dose of 10 mg/kg, read-out: Cmax) of the same compound?
Its Cmax is 206 ng/mL.

What about the MRT inf ([2]; rat, blood, male Sprague Dawley rats, single bolus oral dose of 10 mg/kg, read-out: MRT 0-inf_obs) of the same compound?
Its MRT inf is 7.37 h.

What about the Tmax ([2]; rat, blood, male Sprague Dawley rats, single bolus oral dose of 10 mg/kg, read-out: Tmax) of the same compound?
Its Tmax is 2 h.
